Laboratory results reported in US11654198B2, “Application of combination of polyethylene glycol and local anesthetic in non-narcotic analgesia” (JENKEM TECHNOLOGY CO., LTD. (TIANJIN), priority 2016, dated 2023).

Columns and labels:
[1] = system: SD rats; experiment: Hot plate paw withdrawal time, rat plantar incision model (Example 31); type: in vivo; details: for time the analgesic effect can reach: conjugate 10/11/12 at 32/24/48 mg/kg
Description: After SD rats inhale anesthesia (isoflurane), an incision of about 1 cm in length from the proximal end of the pelma to the toe is made: after the skin and fascia are cut, the plantar muscle is picked up with an ophthalmic forceps and cut longitudinally (maintaining the starting and ending point and attachment of muscles); pressing is carried out for hemostasis, physiological saline and test drugs are injected into the muscles of animal's legs, and then the pain threshold detection is performed by the hot plate method. Within 24 hours after the model is successful, the rats develop significant hyperalgesia. Qualified rats are randomly divided into 5 groups, 6 rats in each group, which are labeled as groups G1, G2, G3, G4 and G5, respectively. The plantar subcutaneous injection method for administration is used, and the grouping information of the experimental animals is shown in Table 8.
(§1) Sensory block (hot plate paw withdrawal time): The sensory block of the rat is examined by a hot plate method, and the hot plate is heated to (56±1)° C., and one of the hind paws of the rat is placed on the hot plate, the other hind paw is in the laboratory room temperature condition, and the tested paw withdrawal time is observed and recorded. The average value of two to three times measured is recorded as a pain threshold. In order to avoid the damage of the experimental animal body, if the rat has no paw withdrawal in the hot plate experiment for more than 15 s, the paws should be removed from the hot plate, and the experimental result is recorded as 15 s. The time point for determining the paw withdrawal time of the hot plate is before administration, and 0.5 h, 1 h, 2 h, 4 h, 6 h, 8 h, 12 h, and 24 h after administration.

[2] = system: SD rats; experiment: Motor block four-level score, rat sciatica model (SNL) (Example 32); type: in vivo; parameters: key to motor function score: 1 = normal paw movement to 4 = complete loss, gait defect; details: for motor function score: bupivacaine 8, conjugate 10/11/12 32/24/48 mg/kg; for effect on motor function of SD rats: conjugate 10/11/12 at 32/24/48 mg/kg
From the text: Intervertebral disc compression (SNL): This model is a pathological form that simulates clinical disc herniation. The specific method is to remove the autogenous caudal intervertebral disc tissue (annulus fibrosus and nucleus pulposus) form the rats and place the caudal intervertebral disc tissue between the proximal nerve root of the L5 dorsal root ganglion and the lower vertebral body to directly compress the L5 nerve root, wherein damage to the L5 nerve root or dorsal root ganglion should be avoided during the operation. 3 to 15 days after the model is successful, rats develop significant hyperalgesia, so the administration time we chose is between 3 days and 15 days.
Qualified rats are randomly divided into 5 groups, 6 rats in each group, which are labeled as groups G1, G2, G3, G4 and G5, respectively. Administration by intramuscular injection around sciatic nerve is adopted, and the grouping information of the experimental animals is shown in Table 11.
Motor block (four-level score): The exercise condition of each group of rats is evaluated by the motor block four-level scoring method. The scoring criteria are: paws can be dorsiflexed, stretched, valgus and other normal exercises, scored by 1 point; paws can be dorsiflexed, bendable or after the adduction, although the paws can be stretched, the stretching ability is weakened, scored by 2 points; the paw can perform dorsiflexion, but no longer has the ability to stretch, scored by 3 points; the paw completely loses the ability of dorsiflexion, curling and stretching, and the rats produce a gait defect, scored by 4 points. The time point for determining the withdrawal time of the hot plate is before administration, and 0.5 h, 1 h, 2 h, 4 h, 6 h, 8 h, 12 h, and 24 h after administration.

[3] = system: SD rats; experiment: Sensory block, hot plate paw withdrawal time, non-anesthetic analgesic effect of PEG-bupivacaine conjugate (Example 30); type: in vivo, rat; details: for hot plate paw withdrawal time: conjugate 10/11/12 at 32/24/48 mg/kg (as bupivacaine); for time the analgesic effect could reach: conjugate 10 at 32 mg/kg, conjugate 11 at 24 mg/kg
Description: Male Sprague-Dawley rats are used in the study, about 230-250 g when accepted, and acclimated for at least 7 days prior to the experiment. Two rats are raised in each cage and fed freely with feed and water. The environmental conditions of the breeding room are 23±2° C., and the relative humidity is 40% to 70%, alternating 12 hours of light and dark. […] The qualified rats are randomly divided into 4 groups, 4 rats in each group, which are labeled as groups G1, G2, G3, and G4, respectively. Administration by direct injection in the sciatic nerve is adopted, and with the rat's back facing up, the drug is injected around the right sciatic nerve trunk between the right hip and the right thigh.
as §1, with “the hot plate. The other hind” for “the hot plate, the other hind”, “s, the rat should be” for “s, the paws should be”, “8 h, 10 h, 12 h,” for “8 h, 12 h,”

[4] = 0 h (after surgery, before administration), bupivacaine 8, conjugate 10/11/12 32/24/48 mg/kg
[5] = 0.5 h after plantar subcutaneous injection, bupivacaine 8, conjugate 10/11/12 32/24/48 mg/kg
[6] = 1 h after plantar subcutaneous injection, bupivacaine 8, conjugate 10/11/12 32/24/48 mg/kg
[7] = 2 h after plantar subcutaneous injection, bupivacaine 8, conjugate 10/11/12 32/24/48 mg/kg
[8] = 4 h after plantar subcutaneous injection, bupivacaine 8, conjugate 10/11/12 32/24/48 mg/kg
[9] = 6 h after plantar subcutaneous injection, bupivacaine 8, conjugate 10/11/12 32/24/48 mg/kg
[10] = 8 h after plantar subcutaneous injection, bupivacaine 8, conjugate 10/11/12 32/24/48 mg/kg
[11] = 12 h after plantar subcutaneous injection, bupivacaine 8, conjugate 10/11/12 32/24/48 mg/kg
[12] = 24 h after plantar subcutaneous injection, bupivacaine 8, conjugate 10/11/12 32/24/48 mg/kg
[13] = base value before surgery, bupivacaine 8, conjugate 10/11/12 32/24/48 mg/kg (as bupivacaine)
[14] = 0.5 h after direct injection around sciatic nerve
[15] = 2 h after direct injection around sciatic nerve
[16] = 4 h after direct injection around sciatic nerve
[17] = 6 h after direct injection around sciatic nerve
[18] = 8 h after direct injection around sciatic nerve
[19] = 10 h after direct injection around sciatic nerve
[20] = 12 h after direct injection around sciatic nerve
[21] = 24 h after direct injection around sciatic nerve
[22] = l h after direct injection around sciatic nerve

Substance	hot plate paw withdrawal time [1, 4]	hot plate paw withdrawal time [1, 5]	hot plate paw withdrawal time [1, 6]	hot plate paw withdrawal time [1, 7]	hot plate paw withdrawal time [1, 8]	hot plate paw withdrawal time [1, 9]	hot plate paw withdrawal time [1, 10]	hot plate paw withdrawal time [1, 11]	hot plate paw withdrawal time [1, 12]	hot plate paw withdrawal time [1, 13]	time the analgesic effect can reach [1]	motor function score ([2]; 0.5 h)	motor function score ([2]; 1 h)	motor function score ([2]; 2 h)	motor function score ([2]; 4 h)	motor function score ([2]; 6 h)	motor function score ([2]; 8 h)	motor function score ([2]; 12 h)	motor function score ([2]; 24 h)	effect on motor function of SD rats [2]	other results
8-Arm-PEG-Bupivacaine, 20K [bupivacaine conjugate 10]	1.41 s	6.52 s	7.91 s	6.21 s	6.79 s	7.42 s	7.43 s	2.10 s	1.32 s	5.20 s	8 h	1 ± 0	1.75 ± 0.5	1.75 ± 0.5	1.75 ± 0.5	1.75 ± 0.5	1.75 ± 0.5	1 ± 0	1 ± 0	does not affect the motor function	hot plate paw withdrawal time [3, 14]: 11.85 s; hot plate paw withdrawal time [3, 15]: 8.91 s; hot plate paw withdrawal time [3, 16]: 10.74 s; hot plate paw withdrawal time [3, 17]: 11.92 s; hot plate paw withdrawal time [3, 18]: 8.49 s; hot plate paw withdrawal time [3, 19]: 6.64 s; hot plate paw withdrawal time [3, 20]: 3.82 s; hot plate paw withdrawal time [3, 21]: 3.81 s; time the analgesic effect could reach [3]: 8 h; hot plate paw withdrawal time [3, 22]: 11.98 s
8-Arm-PEG-Bupivacaine, 20K [bupivacaine conjugate 11]	1.26 s	7.43 s	8.49 s	9.10 s	7.91 s	8.65 s	2.19 s	1.89 s	1.56 s	4.97 s	≥ 6 h	1 ± 0	1 ± 0	1 ± 0	1 ± 0	1 ± 0	1 ± 0	1 ± 0	1 ± 0	does not affect the motor function	time after administration at which hot plate paw withdrawal time is significantly higher than vehicle group ([1]; bupivacaine 8, conjugate 10/11/12 32/24/48 mg/kg): ≤ 6 h; hot plate paw withdrawal time [3, 14]: 9.60 s; hot plate paw withdrawal time [3, 15]: 5.02 s; hot plate paw withdrawal time [3, 16]: 6.65 s; hot plate paw withdrawal time [3, 17]: 6.44 s; hot plate paw withdrawal time [3, 18]: 3.69 s; hot plate paw withdrawal time [3, 19]: 3.24 s; hot plate paw withdrawal time [3, 20]: 2.62 s; hot plate paw withdrawal time [3, 21]: 3.77 s; time after administration at which hot plate paw withdrawal time is significantly higher than vehicle group ([3]; conjugate 10/11/12 at 32/24/48 mg/kg, direct injection): ≤ 6 h; time the analgesic effect could reach [3]: 6 h; hot plate paw withdrawal time [3, 22]: 9.99 s
